In paper PMC11593560 (International Journal of Molecular Sciences, 2024):

Target: T1, CAIX (Homo sapiens, UniProt Q16790)
T1 construct: gene CA9; hCAIX expressed in Xenopus oocytes; with rMCT4 (coexpressed)
Test: inhibition of CAIX-mediated increase in MCT4 transport (intracellular H+ microelectrodes, Xenopus oocytes)
Assay type: cell-based

IC50: 0.0899 ± 0.0056 µM
Structure (SMILES): O=C1NS(=O)(=O)c2cc(-n3cc(CCO[C@H]4O[C@@H](CO)[C@@H](O)[C@H](O)[C@@H]4O)nn3)ccc21 [BGal2C, Beta-Galactose-2C]
